Source: article PMC12445503 (Channels, 2025)

How the values were obtained:
Assay type in all cases: cell-based
[1] = target: T1, Cav1.3 (Homo sapiens, UniProt Q01668); experiment: whole-cell patch-clamp concentration-response, […] Ca2+, HP -89 mV, […] Hz
T1 construct: gene CACNA1D; human Cav1.3S (C-terminal short splice variant, exon 8b) α1 stably expressed in tsA-201 cells; with auxiliary β3 (rat) and α2δ1 (rabbit) subunits

[2] = target: T2, Cav2.3 (Homo sapiens, UniProt Q15878); experiment: whole-cell patch-clamp, […], […] Ca2+, HP -89 mV, […] Hz; conditions: read-out: % remaining ICa / 10 μM
T2 construct: gene CACNA1E; Cav2.3e α1 transiently expressed in tsA-201 cells; with auxiliary β3 and α2δ1 subunits

[3] = target: T3, Cav1.2 (Homo sapiens, UniProt Q13936); experiment: whole-cell patch-clamp concentration-response, […] Ca2+, HP -89 mV, […] Hz
T3 construct: gene CACNA1C; human Cav1.2 α1 stably expressed in tsA-201 cells; with auxiliary β3 (rat) and α2δ1 (rabbit) subunits

T1 sequence (Q01668 whole entry, canonical isoform): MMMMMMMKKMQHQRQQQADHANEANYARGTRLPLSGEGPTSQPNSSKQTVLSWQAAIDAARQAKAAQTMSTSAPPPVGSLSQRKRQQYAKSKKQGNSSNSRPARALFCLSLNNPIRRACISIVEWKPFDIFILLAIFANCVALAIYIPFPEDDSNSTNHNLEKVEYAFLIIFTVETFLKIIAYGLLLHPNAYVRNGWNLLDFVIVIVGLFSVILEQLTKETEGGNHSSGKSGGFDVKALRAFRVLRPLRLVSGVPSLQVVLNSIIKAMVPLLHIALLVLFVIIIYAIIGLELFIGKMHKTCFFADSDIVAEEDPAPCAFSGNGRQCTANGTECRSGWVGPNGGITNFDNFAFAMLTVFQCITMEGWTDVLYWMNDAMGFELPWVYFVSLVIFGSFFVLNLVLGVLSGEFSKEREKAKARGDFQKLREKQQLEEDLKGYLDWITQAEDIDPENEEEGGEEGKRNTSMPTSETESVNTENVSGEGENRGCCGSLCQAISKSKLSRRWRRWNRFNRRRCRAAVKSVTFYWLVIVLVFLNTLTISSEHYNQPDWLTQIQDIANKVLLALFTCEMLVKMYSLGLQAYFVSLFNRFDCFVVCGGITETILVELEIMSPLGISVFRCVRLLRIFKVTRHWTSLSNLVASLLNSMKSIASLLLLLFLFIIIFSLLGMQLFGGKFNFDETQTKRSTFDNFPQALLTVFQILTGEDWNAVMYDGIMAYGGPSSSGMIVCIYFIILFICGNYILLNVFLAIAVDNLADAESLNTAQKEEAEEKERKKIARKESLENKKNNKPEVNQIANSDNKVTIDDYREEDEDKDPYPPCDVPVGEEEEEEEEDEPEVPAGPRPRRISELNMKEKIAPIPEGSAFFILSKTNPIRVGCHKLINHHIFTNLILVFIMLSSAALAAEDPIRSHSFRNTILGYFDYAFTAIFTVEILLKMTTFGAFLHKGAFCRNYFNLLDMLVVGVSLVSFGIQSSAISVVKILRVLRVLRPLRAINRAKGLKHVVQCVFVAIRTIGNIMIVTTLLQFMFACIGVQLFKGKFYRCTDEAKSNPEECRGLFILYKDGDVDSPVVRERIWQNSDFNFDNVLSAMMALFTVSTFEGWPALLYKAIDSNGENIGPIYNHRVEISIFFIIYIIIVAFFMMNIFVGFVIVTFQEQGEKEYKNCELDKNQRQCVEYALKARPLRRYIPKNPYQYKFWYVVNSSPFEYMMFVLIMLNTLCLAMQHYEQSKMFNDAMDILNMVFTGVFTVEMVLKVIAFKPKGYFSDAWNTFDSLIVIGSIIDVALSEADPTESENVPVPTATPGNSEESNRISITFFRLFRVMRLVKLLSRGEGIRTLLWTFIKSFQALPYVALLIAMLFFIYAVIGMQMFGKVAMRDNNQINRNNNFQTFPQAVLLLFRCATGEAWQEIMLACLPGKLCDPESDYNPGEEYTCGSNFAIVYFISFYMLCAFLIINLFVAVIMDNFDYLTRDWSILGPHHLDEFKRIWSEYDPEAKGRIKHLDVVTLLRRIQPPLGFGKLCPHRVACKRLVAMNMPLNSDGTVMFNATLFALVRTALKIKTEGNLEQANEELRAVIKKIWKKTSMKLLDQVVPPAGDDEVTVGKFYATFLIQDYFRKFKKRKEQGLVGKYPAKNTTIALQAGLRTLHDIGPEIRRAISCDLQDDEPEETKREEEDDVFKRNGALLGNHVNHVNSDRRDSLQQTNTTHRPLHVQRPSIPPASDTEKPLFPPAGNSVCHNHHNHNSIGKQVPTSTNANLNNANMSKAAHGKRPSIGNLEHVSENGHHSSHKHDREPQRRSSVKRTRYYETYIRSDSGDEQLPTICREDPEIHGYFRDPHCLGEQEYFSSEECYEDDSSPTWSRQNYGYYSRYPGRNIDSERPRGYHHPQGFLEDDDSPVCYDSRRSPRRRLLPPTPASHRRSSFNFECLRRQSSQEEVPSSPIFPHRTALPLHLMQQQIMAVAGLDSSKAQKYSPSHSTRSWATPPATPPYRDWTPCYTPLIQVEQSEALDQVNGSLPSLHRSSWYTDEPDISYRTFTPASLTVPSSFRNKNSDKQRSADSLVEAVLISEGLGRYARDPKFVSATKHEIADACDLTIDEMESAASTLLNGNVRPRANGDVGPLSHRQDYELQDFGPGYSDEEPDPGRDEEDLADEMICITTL
T1 sequence (P54287 whole entry partner, canonical isoform): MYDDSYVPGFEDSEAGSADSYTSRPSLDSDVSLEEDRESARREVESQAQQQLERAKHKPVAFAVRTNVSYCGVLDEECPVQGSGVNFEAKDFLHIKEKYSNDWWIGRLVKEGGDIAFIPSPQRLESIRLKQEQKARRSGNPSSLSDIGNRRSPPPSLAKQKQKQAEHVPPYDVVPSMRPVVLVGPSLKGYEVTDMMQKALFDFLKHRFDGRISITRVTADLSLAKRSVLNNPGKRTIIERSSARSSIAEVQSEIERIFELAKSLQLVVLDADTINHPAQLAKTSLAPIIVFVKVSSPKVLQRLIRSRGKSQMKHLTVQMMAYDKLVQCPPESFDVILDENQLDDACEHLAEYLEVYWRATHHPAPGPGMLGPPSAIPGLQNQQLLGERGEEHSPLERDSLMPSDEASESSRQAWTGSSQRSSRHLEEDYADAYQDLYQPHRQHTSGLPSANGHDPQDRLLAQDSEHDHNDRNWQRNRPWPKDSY
T1 sequence (P13806 27-960 partner): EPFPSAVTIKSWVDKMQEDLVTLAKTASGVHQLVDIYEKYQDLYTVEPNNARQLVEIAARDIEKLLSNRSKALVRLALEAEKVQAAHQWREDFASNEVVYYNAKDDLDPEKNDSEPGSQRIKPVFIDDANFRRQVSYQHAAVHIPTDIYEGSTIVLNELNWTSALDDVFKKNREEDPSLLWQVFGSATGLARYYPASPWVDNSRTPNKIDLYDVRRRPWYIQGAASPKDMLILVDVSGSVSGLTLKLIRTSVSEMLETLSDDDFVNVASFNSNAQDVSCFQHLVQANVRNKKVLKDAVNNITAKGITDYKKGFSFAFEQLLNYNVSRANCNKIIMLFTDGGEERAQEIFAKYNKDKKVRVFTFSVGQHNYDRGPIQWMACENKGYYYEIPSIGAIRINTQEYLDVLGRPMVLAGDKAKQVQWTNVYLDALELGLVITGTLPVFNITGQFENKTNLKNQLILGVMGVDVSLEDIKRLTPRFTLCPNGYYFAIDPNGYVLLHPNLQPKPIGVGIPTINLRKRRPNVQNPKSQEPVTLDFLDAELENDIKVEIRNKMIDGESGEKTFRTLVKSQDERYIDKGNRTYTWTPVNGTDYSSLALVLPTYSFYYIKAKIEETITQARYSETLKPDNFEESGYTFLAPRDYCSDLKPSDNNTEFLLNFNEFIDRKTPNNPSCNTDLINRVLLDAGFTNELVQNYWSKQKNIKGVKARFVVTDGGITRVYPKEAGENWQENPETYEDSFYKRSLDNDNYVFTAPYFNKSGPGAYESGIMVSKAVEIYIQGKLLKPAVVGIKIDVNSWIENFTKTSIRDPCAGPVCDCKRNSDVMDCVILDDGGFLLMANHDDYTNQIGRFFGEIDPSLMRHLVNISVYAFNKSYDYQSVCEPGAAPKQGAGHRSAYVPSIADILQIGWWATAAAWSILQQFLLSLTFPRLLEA
T1 sequence (P13806 961-1106 partner): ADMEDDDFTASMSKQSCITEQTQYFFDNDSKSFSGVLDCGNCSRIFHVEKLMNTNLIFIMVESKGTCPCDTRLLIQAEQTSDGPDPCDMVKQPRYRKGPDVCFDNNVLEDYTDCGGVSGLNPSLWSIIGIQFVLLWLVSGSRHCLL

| SMILES | IC50 [1] [µM] | remaining activity at 10 µM [2] [%] | IC50 [3] [µM] |
| --- | --- | --- | --- |
| COC(=O)C1=C(C)NC(C)=C(C(=O)OC(C)C)C1c1cccc2nonc12 (stereo not shown) [isradipine] | 0.134 | – | – |
| C=C[C@](C)(O)CC[C@@H]1[C@@]2(C)CCCC(C)(C)[C@@H]2CC[C@@]1(C)O [sclareol] | 16.3 | 36.7 ± 11.2 | 12.5 |
